# US8691855B2, “Compounds, isomer thereof, or pharmaceutically acceptable salts thereof as vanilloid receptor antagonist and pharmaceutical compositions containing the same” (Amorepacific Corporation, priority 2008, dated 2014)
# Biological target: T1, vanilloid receptor (Rattus norvegicus, UniProt O35433)
# T1 construct: DRG nerve cells from the primary culture of 2 days were equilibrated; endogenous in cells; host or cells: primary culture of dorsal root ganglion neurons from neonatal SD rats
# Experiment: 45Ca influx test (antagonist calcium uptake test) in rat DRG neurons stimulated with capsaicin
# Type: cell-based
# Conditions: DRG neuron; @1 μM; neonatal SD rat DRG neurons; capsaicin 0.5 μM; read-out: Antagonist Calcium Uptake Test, percent inhibition of capsaicin response
# In short: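 Neonatal SD rat DRG neurons, cultured 2 days with NGF 200 ng/ml, exposed to test compound plus 0.5 μM capsaicin and 45Ca (10 μCi/ml) in HEPES-buffered Ca/Mg-free HBSS, pH 7.4, 10 min at room temperature. Influx counted by scintillation; activity as percent inhibition of the 0.5 μM capsaicin maximal response.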
# T1 sequence (O35433 whole entry): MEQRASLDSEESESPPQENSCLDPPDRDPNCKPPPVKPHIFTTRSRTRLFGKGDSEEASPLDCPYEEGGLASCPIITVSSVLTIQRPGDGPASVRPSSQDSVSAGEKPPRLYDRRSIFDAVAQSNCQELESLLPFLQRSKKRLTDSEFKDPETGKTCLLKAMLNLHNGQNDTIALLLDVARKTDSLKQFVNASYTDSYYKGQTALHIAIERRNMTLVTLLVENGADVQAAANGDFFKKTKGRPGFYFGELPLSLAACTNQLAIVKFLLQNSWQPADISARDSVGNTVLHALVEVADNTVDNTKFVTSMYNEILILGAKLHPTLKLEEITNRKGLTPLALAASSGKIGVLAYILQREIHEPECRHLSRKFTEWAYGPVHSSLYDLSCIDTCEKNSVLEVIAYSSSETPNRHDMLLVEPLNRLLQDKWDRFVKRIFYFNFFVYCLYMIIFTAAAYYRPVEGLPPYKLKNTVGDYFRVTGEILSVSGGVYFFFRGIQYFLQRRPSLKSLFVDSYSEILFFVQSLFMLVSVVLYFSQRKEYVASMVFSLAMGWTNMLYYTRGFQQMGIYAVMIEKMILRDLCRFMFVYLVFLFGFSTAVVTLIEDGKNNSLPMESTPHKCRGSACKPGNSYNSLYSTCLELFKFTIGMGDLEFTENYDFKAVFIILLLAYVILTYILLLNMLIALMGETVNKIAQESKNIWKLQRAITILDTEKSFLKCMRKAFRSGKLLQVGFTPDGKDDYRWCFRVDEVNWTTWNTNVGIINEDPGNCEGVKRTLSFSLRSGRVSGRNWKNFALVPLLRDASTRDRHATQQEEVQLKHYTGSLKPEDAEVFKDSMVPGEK
row,SMILES,inhibition at 1 µM [%]
1,"C[C@@H](NC(=O)c1ccc(-c2cc(C3CC3)cc(C(F)(F)F)c2)o1)c1cc(F)c(NS(C)(=O)=O)c(F)c1 [Example 95, 5-(3-Cyclopropyl-5-trifluoromethyl-phenyl)-furan-2-carboxylic acid [1-(3,5-difluoro-4-methanesulfonylamino-phenyl)-ethyl]-amide]",66

# Same assay, conditions: DRG neuron; @3 μM; neonatal SD rat DRG neurons; capsaicin 0.5 μM; read-out: Antagonist Calcium Uptake Test, percent inhibition of capsaicin response
row,SMILES,inhibition at 3 µM [%]
1,"C[C@@H](NC(=O)c1coc(-c2ccc(C(F)(F)F)cc2)n1)c1cc(F)c(NS(C)(=O)=O)c(F)c1 [Example 74, 2-(4-Trifluoromethyl-phenyl)-oxazole-4-carboxylic acid [1-(3,5-difluoro-4-methanesulfonylamino-phenyl)-ethyl]-amide]",89

# Same assay, conditions: neonatal SD rat DRG neurons; capsaicin 0.5 μM; 45Ca
row,SMILES,IC50 [nM]
1,"CC(c1cccc(Oc2nc(C(=O)N[C@H](C)c3cc(F)c(NS(C)(=O)=O)c(F)c3)co2)c1)C(F)(F)F (some centres unmarked) [Example 35, 2-[3-(2,2,2-Trifluoro-1-methyl-ethyl)-phenoxy]-oxazole-4-carboxylic acid [1-(3,5-difluoro-4-methanesulfonylamino-phenyl)-ethyl]-amide]",1800
2,"C[C@@H](NC(=O)c1ccc(-c2ccccc2C(F)(F)F)o1)c1cc(F)c(NS(C)(=O)=O)c(F)c1 [Example 119, 5-(2-Trifluoromethyl-phenyl)-furan-2-carboxylic acid [1-(3,5-difluoro-4-methanesulfonylamino-phenyl)-ethyl]-amide]",130
3,"C[C@@H](NC(=O)c1coc(Oc2cccc(C(F)(F)F)c2)n1)c1cc(F)c(NS(C)(=O)=O)c(F)c1 [Example 2, 2-(3-Trifluoromethyl-phenoxy)-oxazole-4-carboxylic acid [1-(3,5-difluoro-4-methanesulfonylamino-phenyl)-ethyl]-amide]",410
4,"C[C@@H](NC(=O)c1coc(Oc2cc(C(F)(F)F)ccc2Cl)n1)c1cc(F)c(NS(C)(=O)=O)c(F)c1 [Example 53, 2-(2-Chloro-5-trifluoromethyl-phenoxy)-oxazole-4-carboxylic acid [1-(3,5-difluoro-4-methanesulfonylamino-phenyl)-ethyl]-amide]",720
5,"C[C@@H](NC(=O)c1coc(-c2ccc(-c3ccccc3)cc2)n1)c1cc(F)c(NS(C)(=O)=O)c(F)c1 [Example 78, 2-Biphenyl-4-yl-oxazole-4-carboxylic acid [1-(3,5-difluoro-4-methanesulfonylamino-phenyl)-ethyl]-amide]",> 10000
6,"C[C@@H](NC(=O)c1coc(Oc2cc(C(F)(F)F)cc(C(F)(F)F)c2)n1)c1cc(F)c(NS(C)(=O)=O)c(F)c1 [Example 36, 2-(3,5-Bis-trifluoromethyl-phenoxy)-oxazole-4-carboxylic acid [1-(3,5-difluoro-4-methanesulfonylamino-phenyl)-ethyl]-amide]",1300
7,"CS(=O)(=O)Nc1c(F)cc(CNC(=O)c2ccc(-c3cccc(C(F)(F)F)c3)s2)cc1F [Example 65, 5-(3-Trifluoromethyl-phenyl)-thiophene-2-carboxylic acid 3,5-difluoro-4-methanesulfonylamino-benzylamide]",2700
8,"C[C@@H](NC(=O)c1coc(Oc2cccc(Br)c2)n1)c1cc(F)c(NS(C)(=O)=O)c(F)c1 [Example 15, 2-(3-Bromo-phenoxy)-oxazole-4-carboxylic acid [1-(3,5-difluoro-4-methanesulfonylamino-phenyl)-ethyl]-amide]",600
9,"CC(C)c1cccc(Oc2ccc(C(=O)N[C@H](C)c3cc(F)c(NS(C)(=O)=O)c(F)c3)o2)c1 [Example 59, 5-(3-Isopropyl-phenoxy)-furan-2-carboxylic acid [1-(3,5-difluoro-4-methanesulfonylamino-phenyl)-ethyl]-amide]",1000
10,"C[C@@H](NC(=O)c1coc(-c2cccc(Cl)c2)n1)c1cc(F)c(NS(C)(=O)=O)c(F)c1 [Example 82, 2-(3-Chloro-phenyl)-oxazole-4-carboxylic acid [1-(3,5-difluoro-4-methanesulfonylamino-phenyl)-ethyl]-amide]",650
11,"C[C@@H](NC(=O)c1coc(Oc2cccc(C3CCC3)c2)n1)c1cc(F)c(NS(C)(=O)=O)c(F)c1 [Example 56, 2-(3-Cyclobutyl-phenoxy)-oxazole-4-carboxylic acid [1-(3,5-difluoro-4-methanesulfonylamino-phenyl)-ethyl]-amide]",560
12,"C[C@@H](NC(=O)c1coc(Oc2ccc3c(c2)CCC3)n1)c1cc(F)c(NS(C)(=O)=O)c(F)c1 [Example 22, 2-(Indan-5-yloxy)-oxazole-4-carboxylic acid [1-(3,5-difluoro-4-methanesulfonylamino-phenyl)-ethyl]-amide]",1900
13,"C[C@@H](NC(=O)c1coc(Oc2ccc(C(C)(C)C)cc2)n1)c1cc(F)c(NS(C)(=O)=O)c(F)c1 [Example 7, 2-(4-tert-Butyl-phenoxy)-oxazole-4-carboxylic acid [1-(3,5-difluoro-4-methanesulfonylamino-phenyl)-ethyl]-amide]",4300
14,"C[C@@H](NC(=O)c1coc(Oc2cccc(C(F)(F)F)c2Cl)n1)c1cc(F)c(NS(C)(=O)=O)c(F)c1 [Example 45, 2-(2-Chloro-3-trifluoromethyl-phenoxy)-oxazole-4-carboxylic acid [1-(3,5-difluoro-4-methanesulfonylamino-phenyl)-ethyl]-amide]",770
15,"C[C@@H](NC(=O)c1ccc(-c2ccc(F)c(C(F)(F)F)c2)o1)c1cc(F)c(NS(C)(=O)=O)c(F)c1 [Example 124, 5-(4-Fluoro-3-trifluoromethyl-phenyl)-furan-2-carboxylic acid [1-(3,5-difluoro-4-methanesulfonylamino-phenyl)-ethyl]-amide]",42
16,"C[C@@H](NC(=O)c1coc(-c2ccc3ccccc3c2)n1)c1cc(F)c(NS(C)(=O)=O)c(F)c1 [Example 89, 2-Naphthalen-2-yl-oxazole-4-carboxylic acid [1-(3,5-difluoro-4-methanesulfonylamino-phenyl)-ethyl]-amide]",2700
17,"CS(=O)(=O)Nc1c(F)cc(CNC(=O)c2ccc(-c3ccc(C(F)(F)F)cc3)s2)cc1F [Example 60, 5-(4-Trifluoromethyl-phenyl)-thiophene-2-carboxylic acid 3,5-difluoro-4-methanesulfonylamino-benzylamide]",6100
18,"CC1CCCc2c(Oc3nc(C(=O)N[C@H](C)c4cc(F)c(NS(C)(=O)=O)c(F)c4)co3)cccc21 (some centres unmarked) [Example 39, 2-(5-Methyl-5,6,7,8-tetrahydro-naphthalen-1-yloxy)-oxazole-4-carboxylic acid [1-(3,5-difluoro-4-methanesulfonylamino-phenyl)-ethyl]-amide]",290
19,"CC(C)c1cccc(-c2ccc(C(=O)N[C@H](C)c3cc(F)c(NS(C)(=O)=O)c(F)c3)s2)c1 [Example 72, 5-(3-Isopropyl-phenyl)-thiophene-2-carboxylic acid [1-(3,5-difluoro-4-methanesulfonylamino-phenyl)-ethyl]-amide]",1400
20,"CCCCOc1ccccc1-c1nc(C(=O)N[C@H](C)c2cc(F)c(NS(C)(=O)=O)c(F)c2)co1 [Example 66, 2-(2-Butoxy-phenyl)-oxazole-4-carboxylic acid [1-(3,5-difluoro-4-methanesulfonylamino-phenyl)-ethyl]-amide]",750
21,"CS(=O)(=O)Nc1c(F)cc(CNC(=O)c2ccc(-c3cccc(C(F)(F)F)c3)o2)cc1C(F)(F)F [Example 113, 5-(3-Trifluoromethyl-phenyl)-furan-2-carboxylic acid 4-methanesulfonylamino-3-fluoro-5-trifluomethyl-benzylamide]",1400
22,"C[C@@H](NC(=O)c1coc(Oc2cccc(I)c2)n1)c1cc(F)c(NS(C)(=O)=O)c(F)c1 [Example 58, 2-(3-Iodo-phenoxy)-oxazole-4-carboxylic acid [1-(3,5-difluoro-4-methanesulfonylamino-phenyl)-ethyl]-amide]",93
23,"C[C@@H](NC(=O)c1coc(Oc2cccc3c2OC(C)(C)C3)n1)c1cc(F)c(NS(C)(=O)=O)c(F)c1 (stereo in doubt) [Example 34, 2-(2,2-Dimethyl-2,3-dihydro-benzofuran-7-yloxy)-oxazole-4-carboxylic acid [1-(3,5-difluoro-4-methanesulfonylamino-phenyl)-ethyl]-amide]",400
24,"C[C@@H](NC(=O)c1coc(-c2cccc(Cl)c2Cl)n1)c1cc(F)c(NS(C)(=O)=O)c(F)c1 [Example 85, 2-(2,3-Dichloro-phenyl)-oxazole-4-carboxylic acid [1-(3,5-difluoro-4-methanesulfonylamino-phenyl)-ethyl]-amide]",1200

# System: Male ICR mice
# Experiment: Analgesic activity test: mouse writhing test by inducing with phenyl-p-quinone
# Type: in vivo
# Conditions: po, dose 0.3 mg/kg, p.o., read-out: Analgesic effect (% Inhibition)
# Procedure: 2. Analgesic Activity Test: Mouse Writhing Test by Inducing with Phenyl-p-quinone Male ICR mice (mean body weight 25 g) were maintained in a controlled lighting environment (12 h on/12 h off) for experiment. Animals received an intraperitoneal injection of 0.3 ml of the chemical irritant phenyl-p-quinone (dissolved in saline containing 5% ethanol to be a close of 4.5 mg/kg) and 6 mins later, the number of abdominal constrictions was counted in the subsequent 6 mins period. Animals (10 animals/group) received 0.2 ml of test compounds solution in vehicle of ethanol/Tween 80/saline (Oct. 10, 1980) intraperitoneally 30 min before the injection of phenyl-p-quinone. In the case of oral administration, 0.2 ml of test compounds solution in vehicle of ethanol/Tween 80/saline (5/5/90) were administered 54 min prior to the 0.2 ml of 0.02% phenyl-p-quinone injection. A reduction in the number of writhes responding to the test drug compound relative to the number responding in saline control group was considered to be indicative of an analgesic effect. Analgesic effect was calculated by % inhibition equation (% inhibition=(C-T)/C×100), wherein C and T represent the number of writhes in control and compound-treated group, respectively.
row,SMILES,inhibition in vivo at 0.3 mg/kg [%]
1,"CC(c1cccc(Oc2nc(C(=O)N[C@H](C)c3cc(F)c(NS(C)(=O)=O)c(F)c3)co2)c1)C(F)(F)F (some centres unmarked) [Example 35, 2-[3-(2,2,2-Trifluoro-1-methyl-ethyl)-phenoxy]-oxazole-4-carboxylic acid [1-(3,5-difluoro-4-methanesulfonylamino-phenyl)-ethyl]-amide]",29

# Same assay, conditions: po, dose 3 mg/kg, p.o., read-out: Analgesic effect (% Inhibition)
row,SMILES,inhibition in vivo at 3 mg/kg [%]
1,"C[C@@H](NC(=O)c1ccc(-c2ccccc2C(F)(F)F)o1)c1cc(F)c(NS(C)(=O)=O)c(F)c1 [Example 119, 5-(2-Trifluoromethyl-phenyl)-furan-2-carboxylic acid [1-(3,5-difluoro-4-methanesulfonylamino-phenyl)-ethyl]-amide]",38
2,"C[C@@H](NC(=O)c1coc(Oc2cccc(C(F)(F)F)c2)n1)c1cc(F)c(NS(C)(=O)=O)c(F)c1 [Example 2, 2-(3-Trifluoromethyl-phenoxy)-oxazole-4-carboxylic acid [1-(3,5-difluoro-4-methanesulfonylamino-phenyl)-ethyl]-amide]",32
